# Patent publication US7041819B2, “Halogenated calixpyrroles and uses thereof” (Board of Regents, The University of Texas System, priority 1996, dated 2006)
# Columns and labels:
# [1] = Stability under acidic conditions; type: physicochemical; details: for stability under conditions of acid catalysis at higher temperature: 64° C., within 24 h; for stability under conditions of acid catalysis identical to those of preparation: purified samples, 24 hours, ambient temperature
# Procedure: An advantage of 44 is that in contrast to its simple all-hydrogen analogue 43 it is stable upon exposure to acidic aqueous environments (down to pH 3 or 4 for >24 hours). This makes this system particularly useful for anion recognition, binding, sensing, transport, and extraction applications described in Examples 4, 8, 10, 11, 12, and 15.
# A further advantage of the calix[n]pyrroles is that they are stable at a wide range of temperatures, especially at neutral or basic conditions. Under acidic conditions and extreme high or low temperatures, the meso linkage may degrade. A particular attribute of the fluorinated calix[n]pyrroles 44, 46, and 48 is that they are very stable under acidic conditions.
# This latter finding is consistent with compounds 46 and 48 being kinetically stable at ambient temperature but not at higher temperatures.
# [2] = Binding constant in wet acetonitrile
# Procedure: Binding constants vary with the solvent used for the binding study. Note that the solvent used for the data of Table 2 of Example 10 was dichloromethane whereas the solvent used for the studies herein was acetonitrile. In addition, a binding constant of 12,300 M^−1 was determined for the binding of pyrophosphate to 44 in wet acetonitrile.
# [3] = 1H and 19F NMR titration in acetonitrile-d3 (0.5% v/v D2O); type: binding; details: wet acetonitrile
# Source text: ^1H and ^19F NMR Titrations. The receptor 44, as a 0.014 M acetonitrile-d3 (0.5% v/v D2O) solution, was titrated by addition of concentrated acetonitrile-d3 (0.5% v/v D2O) solutions of the anions in question (in the form of their tetrabutylammonium salts). In order to account for dilution effects, these anion solutions also contained receptor 44 at its initial concentration. The data were fit to a 1:1 binding profile according to the method of Wilcox (in Frontiers in Supramolecular Organic Chemistry and Photochemistry; Schneider, H.-J., Dürr, H., Eds.; VCH: Weinheim, 1991) using changes in both the NH and β-F pyrrolic resonances in the ^1H and ^19F NMR spectra, respectively, that were assigned to the portion of the total receptor concentration that was considered to be monomeric. Specifically, the change in the position of the peaks initially at 7.24 ppm (^1H NMR) and −177.03 ppm (^19F NMR) were followed. Integration of the two pyrrolic NH resonances (corresponding to calix[4]pyrroles that are “free” and bound to the next receptor molecule) made it possible to estimate the relative concentration of the monomeric fraction in the acetonitrile-d3 (0.5% v/v D2O) solutions being subject to analysis. This estimated monomeric receptor concentration was used to calculate the affinity constants. […] Estimated errors were <20%.
# The presence of two different receptor forms in solution precluded the use of Job plots to analyze binding stoichiometries. […] This increased selectivity is summarized in terms of the ratio of the binding constants, R44/43. (Table 9). Separate from the issue of binding to the monomeric form, but complicating the analyses somewhat was the finding that the addition of phosphate and fluoride to wet acetonitrile solutions of 44 led to deaggregation.
# ^1H and ^19F NMR spectroscopic titrations. Receptor 46, as a 0.014 M acetonitrile-d3 (0.5% v/v D2O) solution, was titrated by addition of concentrated acetonitrile-d3 (0.5% v/v D2O) solutions of the anions in question (in the form of their tetrabutylammonium salts). In order to account for dilution effects, these anion solutions also contained receptor 46 at its initial concentration. The data were fit to a 1:1 binding profile according to the method of Wilcox (Wilcox, C. S. in Frontiers in Supramolecular Organic Chemistry and Photochemistry; Schneider, H.-J., Dürr, H., Eds.; VCH: Weinheim, 1991) using changes in both the NH and β-F pyrrolic resonances in the ^1H and ^19F NMR spectra, respectively.
# The binding properties of 46 and 48 were studied.
# [4] = 1H NMR titration in CD2Cl2; type: binding; details: for Stability Constants, Dihydrogen phosphate: Table 4, 0.1 M salt added to 10 mM receptor, value of 28 estimated; for Stability Constant, Dihydrogen phosphate: tetrabutylammonium salt 0.1M added to 10 mM receptor; for Stability Constant, Dibiphosphate: tetrabutylammonium salt 0.03 M added to 3 mM receptor
# [5] = 1H NMR titration in CD2Cl2; details: for Stability Constants, Chloride / Stability Constant, Chloride: CD2Cl2; for Stability Constants, Chloride: Table 4, tetrabutylammonium salt 0.1 M added to 10 mM receptor
# [6] = Anion binding affinity compared with parent calix[4]pyrrole; details: 13 and 29 vs compound 2; 14 and 28 vs compound 1
# Source text: These types of compounds are useful as HPLC column media since low affinity constants and fast complexation-decomplexation rates generally lead to efficient separation of substrates (see Example 10).
# Receptors with an increased anion binding ability such as 14 are useful as anion sequestering agents (e.g., in removal of phosphate and nitrate pollutants from aqueous environments) (see Example 12) or as synthons in reactions to produce further modified calix[4]pyrroles. The present inventors envision this system will be useful as a precursor to a calix[m]pyridino[n]pyrrole or a calix[m]pyridine.
# The attachment of electron-donating substituents (such as methoxy) to the β-position (carbon or C-rim of the calixpyrrole) decreases the stability constants of compound 13 relative to compound 2. However attachment of electron-withdrawing substituents (such as bromine) to the carbon-rim has increased the stability constants of compound 14 relative to compound 1.
# This increased binding affinity towards anions was not observed for the Substituted amide substituted mesooctamethylcalix[4]pyrrole 28 when compared to the compound 1. A possible reason is that the carboxy ‘tail” is not long enough to swing around and contribute to the binding of the anion.
# [7] = 1H NMR titration in CD2Cl2; type: binding; details: for Stability Constants, Hydrogen sulfate: Table 4, 0.1 M salt added to 10 mM receptor
# [8] = 1H NMR titration in CD2Cl2; type: binding; details: tetrabutylammonium salt 0.1M added to 10 mM receptor
# [9] = NMR titration with neutral substrates in benzene-d6; type: binding; details: benzene-d6 at 298 K; 1 at ca. 4 × 10^−3 M
# Source text: Substrate Binding in Solution. The binding of neutral molecules to calix[4]pyrrole in the solid state prompted the present inventors to quantify the binding affinities of calix[4]pyrrole to a number of hydrogenbinding neutral molecules. Table 6 illustrates the varying degrees of affinity to which calix[4]pyrrole binds to various hydrogen binding compounds.
# [10] = 1H NMR titration in CD2Cl2; details: for Stability Constant, Fluoride: CD2Cl2
# [11] = 1H NMR titration in CD2Cl2; type: binding; details: tetrabutylammonium salt 0.1M added to 10 mM receptor; remark: listed apart in the source
# [12] = acetonitrile-d3 (0.5% v/v D2O) at 22° C.; Anzenbacher et al. 1999; cited from earlier work
# [13] = acetonitrile-d3 (0.5% v/v D2O) at 22° C.; Anzenbacher et al. 1999; cited from earlier work; remark: listed apart in the source
# [14] = acetonitrile-d3 (0.5% v/v D2O) at 22° C.; Anzenbacher et al. 1999; cited from earlier work; remark: listed apart in the source
# [15] = acetonitrile-d3 (0.5% v/v D2O) at 22° C.; Anzenbacher et al. 1999; cited from earlier work; remark: listed apart in the source
# [16] = tetrabutylammonium salt 0.1M added to 10 mM receptor
# [17] = tetrabutylammonium fluoride trihydrate 0.1M added to 10 mM receptor
# [18] = tetrabutylammonium salt 0.03 M added to 3 mM receptor
# [19] = tetrabutylammonium salt 0.03 M added to 3 mM receptor, value of 14 estimated
molecule,measurement,setting,value
"CC1(C)c2[nH]c(c(F)c2F)C(C)(C)c2[nH]c(c(F)c2F)C(C)(C)c2[nH]c(c(F)c2F)C(C)(C)c2[nH]c(c(F)c2F)C(C)(C)c2[nH]c(c(F)c2F)C(C)(C)c2[nH]c(c(F)c2F)C(C)(C)c2[nH]c(c(F)c2F)C(C)(C)c2[nH]c1c(F)c2F [Compound 48, β-hexadecafluoro-meso-hexadecamethylcalix[8]pyrrole]",stability under acidic conditions,[1],very stable
same,stability under conditions of acid catalysis at higher temperature,[1],nearly complete conversion to 44
same,stability under conditions of acid catalysis identical to those of preparation,[1],remained completely intact
same,"Stability Constant, Pyrophosphate",[2],28 000 M^−1
same,"Stability Constant, Chloride",[3],3 600 M^−1
"CCCCNC(=O)Cc1cc2[nH]c1C(C)(C)c1ccc([nH]1)C(C)(C)c1ccc([nH]1)C(C)(C)c1ccc([nH]1)C2(C)C [Compound 28, Mono-β-butylamidocalix[4]pyrrole]","Stability Constants, Dihydrogen phosphate",[4],80 (±15)^b M^−1
same,"Stability Constants, Chloride",[5],405 (±10) M^−1
same,anion binding affinity relative to parent calix[4]pyrrole,[6],not observed
same,"Stability Constants, Hydrogen sulfate",[7],<10 M⁻¹
"CC1(C)c2ccc([nH]2)C(C)(C)c2ccc([nH]2)C(C)(C)c2ccc([nH]2)C(C)(C)c2ccc1[nH]2 [Compound 1, meso-octamethylcalix[4]pyrrole]","Stability Constant, Dihydrogen phosphate",[4],97 (±3.9) M^−1
same,"Stability Constant, Bromide",[8],10 (±0.5) M^−1
same,"Ka, 1,1,3,3tetramethylurea",[9],2.2 ± 0.1 M^1
same,"Ka, 1,2dimethylimidazole",[9],5.4 ± 0.3 M^1
same,"Ka, N,N-dimethylacetamide",[9],9.0 ± 0.9 M^1
same,"Ka, N,N-dimethylformamide",[9],11.3 ± 0.8 M^1
same,"Ka, N-formylglycine ethyl ester",[9],13.3 ± 1.0 M^1
same,"Ka, acetone",[9],2.2 ± 0.2 M^1
same,"Ka, benzyl alcohol",[9],9.7 ± 0.7 M^1
same,"Ka, dimethyl sulfoxide",[9],16.2 ± 1.1 M^1
same,"Ka, ethanol",[9],10.7 ± 0.7 M^1
same,"Ka, isopropyl alcohol",[9],7.0 ± 0.4 M^1
same,"Ka, methanol",[9],12.7 ± 1.0 M^1
same,"Ka, secbutanol",[9],6.2 ± 0.4 M^1
same,"Stability Constant, Chloride",[5]; [16],350 (±5.5) M^−1
same,"Stability Constant, Fluoride",[10]; [17],17170 (±900) M^−1
same,"Stability Constant, Iodide",[11],<10 M⁻¹
same,"Stability Constant, Hydrogen sulfate",[7]; [16],<10 M⁻¹
β-monoester-meso-octamethylcalix[4]pyrrole [Compound 10],"Stability Constant, Chloride",[5]; [18],47 (±1) M^−1
same,"Stability Constant, Fluoride",[10]; [19],1.1 (±0.2) × 10^3 M^−1
"c1cc2[nH]c1C1(CCCCC1)c1ccc([nH]1)C1(CCCCC1)c1ccc([nH]1)C1(CCCCC1)c1ccc([nH]1)C21CCCCC1 [Compound 2, meso-Tetraspirocyclohexylcalix[4]pyrrole, reference compound]","Stability Constant, Dihydrogen phosphate",[4],<10 M⁻¹
same,"Stability Constant, Chloride",[5]; [16],117 (±4.0) M^−1
same,"Stability Constant, Fluoride",[10]; [17],3600 (±395) M^−1
"CC1(C)c2[nH]c(c(Br)c2Br)C(C)(C)c2[nH]c(c(Br)c2Br)C(C)(C)c2[nH]c(c(Br)c2Br)C(C)(C)c2[nH]c1c(Br)c2Br [Compound 14, β-Octabromo-meso-octamethylcalix[4]pyrrole]","Stability Constant, Dibiphosphate",[4],<10 M⁻¹
same,"Stability Constant, Chloride",[5]; [18],4.3 (±0.6) × 10^3 M^−1
same,"Stability Constant, Fluoride",[10]; [19],2.7 (±0.4) × 10^4b M^−1
same,anion binding affinity relative to parent calix[4]pyrrole,[6],increased
"CC1(C)c2[nH]c(c(F)c2F)C(C)(C)c2[nH]c(c(F)c2F)C(C)(C)c2[nH]c(c(F)c2F)C(C)(C)c2[nH]c(c(F)c2F)C(C)(C)c2[nH]c1c(F)c2F [Compound 46, β-Decafluoro-meso-decamethylcalix[5]pyrrole]",stability under acidic conditions,[1],very stable
same,stability under conditions of acid catalysis at higher temperature,[1],nearly complete conversion to 44
same,stability under conditions of acid catalysis identical to those of preparation,[1],remained completely intact
same,"Stability Constant, Pyrophosphate",[2],25 000 M^−1
same,"Stability Constant, Chloride",[3],41 000 M^−1
same,"Stability Constant, DMSO",[3],29 (±3) M^−1
"COc1c2[nH]c(c1OC)C1(CCCCC1)c1[nH]c(c(OC)c1OC)C1(CCCCC1)c1[nH]c(c(OC)c1OC)C1(CCCCC1)c1[nH]c(c(OC)c1OC)C21CCCCC1 [Compound 13, β-Octamethoxy-meso-tetraspirocyclohexylcalix[4]pyrrole]","Stability Constant, Dibiphosphate",[4],6.5 (±0.4) × 10^2 M^−1
same,"Stability Constant, Chloride",[5]; [18],<10 M⁻¹
same,"Stability Constant, Fluoride",[10]; [19],1.7 (±0.2) × 10^2 M^−1
same,anion binding affinity relative to parent calix[4]pyrrole,[6],decreased
meso-tetramethylcalix[4]pyrrole-p-tert-butylcalix[4]arene pseudo dimer [Compound 15],changes in the NMR spectrum on addition of tetrabutylammonium fluoride,"[10]; dichloromethane-d2, 10.0 equiv.",no changes
meso-octamethylcalix[4]pyrrole [Compound 1],"Affinity constant, Cl^−",[12],5 000 mol^−1
same,"Affinity constant, DMSO-d6",[13],<5^c mol^−1
same,"Affinity constant, F^−",[14],>10 000 mol^−1
same,"Affinity constant, H2PO4^−",[15],1 300 mol^−1
"CCCCNC(=O)CCCC1(C)c2ccc([nH]2)C2(CCCCC2)c2ccc([nH]2)C2(CCCCC2)c2ccc([nH]2)C2(CCCCC2)c2ccc1[nH]2 (stereo not drawn) [Compound 29, Mono-meso-butylamidocalix[4]pyrrole]","Stability Constants, Dihydrogen phosphate",[4],62 (±6) M^−1
same,"Stability Constants, Chloride",[5],415(±45) M^−1
same,anion binding affinity relative to parent calix[4]pyrrole,[6],marked increase
same,"Stability Constants, Hydrogen sulfate",[7],<10 M⁻¹
"CC1(C)c2[nH]c(c(F)c2F)C(C)(C)c2[nH]c(c(F)c2F)C(C)(C)c2[nH]c(c(F)c2F)C(C)(C)c2[nH]c1c(F)c2F [Compound 44, Meso-Octamethyl-β-octafluorocalix[4]pyrrole]",stability under acidic conditions,[1],very stable
same,"Stability Constant, Pyrophosphate",[2],12300 M⁻¹
same,"Stability Constant, Chloride",[3],10700 M⁻¹
β-diester-meso-octamethylcalix[4]pyrrole [Compound 11],interaction with chloride anion in solution,[5],interact
same,interaction with fluoride anion in solution,[10],interact
